Laboratory results reported in patent publication US9663508B2, “Biaryl acyl-sulfonamide compounds as sodium channel inhibitors” (AMGEN INC., priority 2013, dated 2017).
Read-outs that look alike come from different tables or passages of the source.

Columns and labels:
human Nav1.7 = human Nav1.7 (Homo sapiens (Human), UniProt Q15858); assay: Nav 1.7 in vitro PatchXpress (PX) assay; format: cell-based
human Nav 1.5 = human Nav 1.5 (Homo sapiens (Human), UniProt Q14524); assay: Nav 1.5 IonWorks Quattro (IWQ) in vitro assay; format: cell-based
Chain of human Nav 1.5 (Q14524 whole entry): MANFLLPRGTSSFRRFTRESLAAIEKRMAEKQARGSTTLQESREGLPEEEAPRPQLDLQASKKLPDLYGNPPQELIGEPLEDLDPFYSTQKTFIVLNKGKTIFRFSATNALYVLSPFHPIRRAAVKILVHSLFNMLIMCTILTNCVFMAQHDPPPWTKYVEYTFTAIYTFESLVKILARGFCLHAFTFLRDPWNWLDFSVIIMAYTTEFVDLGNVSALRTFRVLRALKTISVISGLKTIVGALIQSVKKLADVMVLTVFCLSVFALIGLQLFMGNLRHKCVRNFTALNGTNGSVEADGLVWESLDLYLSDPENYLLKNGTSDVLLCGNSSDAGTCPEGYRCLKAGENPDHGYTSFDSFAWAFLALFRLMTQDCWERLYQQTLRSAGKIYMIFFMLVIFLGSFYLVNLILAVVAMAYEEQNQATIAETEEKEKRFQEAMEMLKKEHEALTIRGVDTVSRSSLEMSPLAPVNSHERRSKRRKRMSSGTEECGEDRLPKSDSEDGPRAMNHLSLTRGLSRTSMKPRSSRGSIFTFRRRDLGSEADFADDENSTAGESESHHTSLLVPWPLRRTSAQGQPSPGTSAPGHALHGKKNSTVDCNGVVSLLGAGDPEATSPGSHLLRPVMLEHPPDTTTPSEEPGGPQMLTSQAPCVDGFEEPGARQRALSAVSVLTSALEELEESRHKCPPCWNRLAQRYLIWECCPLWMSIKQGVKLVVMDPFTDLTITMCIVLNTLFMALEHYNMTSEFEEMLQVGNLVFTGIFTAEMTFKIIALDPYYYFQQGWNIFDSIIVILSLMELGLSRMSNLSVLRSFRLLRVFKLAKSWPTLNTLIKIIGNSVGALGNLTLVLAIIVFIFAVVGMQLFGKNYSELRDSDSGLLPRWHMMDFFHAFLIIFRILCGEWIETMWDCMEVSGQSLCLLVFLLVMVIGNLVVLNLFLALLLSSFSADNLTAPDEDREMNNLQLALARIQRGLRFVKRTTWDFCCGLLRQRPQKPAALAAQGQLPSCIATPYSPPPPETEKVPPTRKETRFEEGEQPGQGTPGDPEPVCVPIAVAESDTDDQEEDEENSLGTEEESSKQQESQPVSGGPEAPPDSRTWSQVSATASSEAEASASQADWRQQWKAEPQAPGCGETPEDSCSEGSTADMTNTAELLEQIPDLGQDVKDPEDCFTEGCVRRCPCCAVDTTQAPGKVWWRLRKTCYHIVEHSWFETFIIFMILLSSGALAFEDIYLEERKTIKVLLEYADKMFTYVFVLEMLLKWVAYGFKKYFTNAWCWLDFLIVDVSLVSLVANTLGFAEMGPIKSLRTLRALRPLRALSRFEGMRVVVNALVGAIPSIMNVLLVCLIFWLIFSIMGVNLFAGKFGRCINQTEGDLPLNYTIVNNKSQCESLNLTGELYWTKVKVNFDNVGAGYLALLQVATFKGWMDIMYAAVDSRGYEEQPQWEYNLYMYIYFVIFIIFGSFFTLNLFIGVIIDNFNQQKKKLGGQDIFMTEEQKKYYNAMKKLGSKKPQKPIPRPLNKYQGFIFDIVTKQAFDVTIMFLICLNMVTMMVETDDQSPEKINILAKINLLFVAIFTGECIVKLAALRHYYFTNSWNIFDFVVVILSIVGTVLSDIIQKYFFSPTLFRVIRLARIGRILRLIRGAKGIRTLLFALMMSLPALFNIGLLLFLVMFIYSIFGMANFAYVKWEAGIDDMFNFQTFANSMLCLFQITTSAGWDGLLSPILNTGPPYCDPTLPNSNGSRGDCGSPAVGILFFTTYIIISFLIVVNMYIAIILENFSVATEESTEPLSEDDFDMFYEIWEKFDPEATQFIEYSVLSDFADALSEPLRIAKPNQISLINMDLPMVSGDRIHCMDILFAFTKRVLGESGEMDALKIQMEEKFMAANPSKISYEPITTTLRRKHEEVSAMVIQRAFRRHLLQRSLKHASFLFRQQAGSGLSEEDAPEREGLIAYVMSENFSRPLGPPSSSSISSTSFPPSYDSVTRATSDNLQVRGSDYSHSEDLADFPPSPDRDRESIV
Procedure: Nav 1.7 or Nav 1.5 Ion Works Quattro (IWQ) In Vitro Assay
HEK 293 Cells stably transfected with either human Nay 1.7 or human Nay 1.5 were recorded in population patch-clamp mode with the IonWorks® Quattro automated electrophysiology system in accordance with the manufacturer's specifications (Molecular Devices, LLC, Sunnyvale, Calif.). Sodium channel currents were measured in response to a train of depolarizations that induced successively greater inactivation.
Cells were held at −110 mV for three seconds (Nav 1.7) or half a second (Nav 1.5) from a holding voltage of −15 mV, then put through a series of 26 pulses of 150 msec duration to −20 mV at a frequency of 5 Hz. Cells were then left unclamped for a period of 3 to 8 minutes while a single concentration of test compound was added. Cells were then reclamped and put through the same voltage protocol. Current at the end of the 26th pulse to −20 mV was subtracted from the peak current evoked by the 26th pulse to −20 mV to correct for leak current. Percent block was calculated for each concentration in duplicate, and IC50 curves were fitted to percent block as a function of concentration.

[1] = in-vitro Nav 1.5 IWQ data, read-out: NAV 1.5 IWQ (IC50)

Chain of human Nav1.7 (Q15858 whole entry): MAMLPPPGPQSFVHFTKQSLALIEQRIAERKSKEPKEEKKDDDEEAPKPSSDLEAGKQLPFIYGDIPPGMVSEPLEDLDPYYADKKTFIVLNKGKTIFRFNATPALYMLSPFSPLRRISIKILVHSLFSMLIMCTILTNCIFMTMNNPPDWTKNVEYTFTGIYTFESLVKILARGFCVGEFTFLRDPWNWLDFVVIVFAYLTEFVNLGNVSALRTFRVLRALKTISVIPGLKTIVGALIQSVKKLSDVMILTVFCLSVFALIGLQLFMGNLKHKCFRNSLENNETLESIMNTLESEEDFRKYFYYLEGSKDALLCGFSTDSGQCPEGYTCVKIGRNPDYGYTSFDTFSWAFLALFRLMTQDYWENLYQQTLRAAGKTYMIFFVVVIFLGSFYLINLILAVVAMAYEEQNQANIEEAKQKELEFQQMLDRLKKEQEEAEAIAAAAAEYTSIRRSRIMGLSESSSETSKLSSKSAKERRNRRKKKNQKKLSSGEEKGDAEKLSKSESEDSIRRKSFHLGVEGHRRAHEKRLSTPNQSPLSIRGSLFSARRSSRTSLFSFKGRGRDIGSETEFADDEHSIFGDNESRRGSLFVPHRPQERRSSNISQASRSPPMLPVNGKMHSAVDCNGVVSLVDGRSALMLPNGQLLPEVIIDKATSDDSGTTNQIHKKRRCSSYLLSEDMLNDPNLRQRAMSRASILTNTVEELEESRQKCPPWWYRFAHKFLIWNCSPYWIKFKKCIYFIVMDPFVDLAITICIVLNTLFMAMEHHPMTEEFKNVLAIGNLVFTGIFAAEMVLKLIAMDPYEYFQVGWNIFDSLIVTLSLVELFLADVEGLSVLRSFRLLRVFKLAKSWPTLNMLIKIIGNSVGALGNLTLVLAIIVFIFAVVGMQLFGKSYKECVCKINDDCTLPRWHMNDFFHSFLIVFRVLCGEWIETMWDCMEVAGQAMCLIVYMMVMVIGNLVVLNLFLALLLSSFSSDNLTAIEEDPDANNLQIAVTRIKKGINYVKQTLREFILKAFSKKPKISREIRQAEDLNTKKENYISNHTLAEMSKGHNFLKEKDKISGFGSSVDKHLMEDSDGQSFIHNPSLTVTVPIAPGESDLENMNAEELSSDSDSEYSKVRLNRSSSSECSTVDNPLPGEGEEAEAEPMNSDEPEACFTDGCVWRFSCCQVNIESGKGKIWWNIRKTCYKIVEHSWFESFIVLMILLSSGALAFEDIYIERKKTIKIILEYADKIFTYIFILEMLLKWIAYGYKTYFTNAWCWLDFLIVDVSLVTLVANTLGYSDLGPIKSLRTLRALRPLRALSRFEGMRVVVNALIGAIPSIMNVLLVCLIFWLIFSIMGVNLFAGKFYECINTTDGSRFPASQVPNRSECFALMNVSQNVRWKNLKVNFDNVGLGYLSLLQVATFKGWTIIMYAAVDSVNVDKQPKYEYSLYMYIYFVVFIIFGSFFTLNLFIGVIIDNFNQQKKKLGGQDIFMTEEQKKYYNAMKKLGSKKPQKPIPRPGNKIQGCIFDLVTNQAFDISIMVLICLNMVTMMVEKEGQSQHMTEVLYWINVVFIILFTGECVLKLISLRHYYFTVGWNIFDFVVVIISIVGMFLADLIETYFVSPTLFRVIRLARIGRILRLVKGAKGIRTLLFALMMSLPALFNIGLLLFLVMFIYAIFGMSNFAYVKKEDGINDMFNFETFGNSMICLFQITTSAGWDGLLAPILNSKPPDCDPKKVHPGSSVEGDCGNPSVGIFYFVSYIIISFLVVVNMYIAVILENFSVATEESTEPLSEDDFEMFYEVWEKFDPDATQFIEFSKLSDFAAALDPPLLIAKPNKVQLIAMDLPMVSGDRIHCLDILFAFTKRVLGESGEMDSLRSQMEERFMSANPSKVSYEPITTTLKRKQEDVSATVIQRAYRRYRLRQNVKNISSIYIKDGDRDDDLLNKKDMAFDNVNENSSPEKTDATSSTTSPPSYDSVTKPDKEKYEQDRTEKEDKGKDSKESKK

Compound	IC50 (human Nav1.7)	IC50 (human Nav1.7; in-vitro Nav 1.7 PX data)	IC50 (human Nav 1.5; read-out: NAV 1.5 IWQ IC50)	IC50 (human Nav 1.5; [1])
CC(C)[C@@H](Oc1ncc(-c2cc(F)c(C(=O)NS(C)(=O)=O)cc2Cl)cc1Cl)c1ccccc1 [Example 594, 5-chloro-4-(5-chloro-6-(((1R)-2-methyl-1-phenylpropyl)oxy)-3-pyridinyl)-2-fluoro-N-(methylsulfonyl)benzamide, 5-chloro-4-(5-chloro-6-(((1S)-2-methyl-1-phenylpropyl)oxy)-3-pyridinyl)-2-fluoro-N-(methylsulfonyl)benzamide]	48.8 nM	–	> 3000 nM	–
COc1cc(C(=O)NS(C)(=O)=O)ccc1-c1cc(Cl)nc(Oc2cc(Cl)cc(Cl)c2)c1 [Example 803, 4-(2-chloro-6-(3,5-dichlorophenoxy)-4-pyridinyl)-3-methoxy-N-(methylsulfonyl)benzamide]	–	91.6 nM	–	> 3000 nM
CC[C@@H](Oc1ncc(-c2cc(F)c(C(=O)NS(C)(=O)=O)cc2C)cc1Cl)c1ccc(F)cc1 [Example 650, 4-(5-chloro-6-(((1R)-1-(4-fluorophenyl)propyl)oxy)-3-pyridinyl)-2-fluoro-5-methyl-N-(methylsulfonyl)benzamide]	78.7 nM	–	> 3000 nM	–
Cc1cc(C(=O)NS(=O)(=O)C2CC2)c(F)cc1-c1cnc(Oc2c(C)cc(Cl)cc2Cl)c(Cl)c1 [Example 801, 4-(5-chloro-6-(2,4-dichloro-6-methylphenoxy)-3-pyridinyl)-N-(cyclopropylsulfonyl)-2-fluoro-5-methylbenzamide]	–	56.2 nM	–	485 nM
CCS(=O)(=O)NC(=O)c1ccc(-c2cnc(Oc3c(C)cc(Cl)cc3Cl)c(Cl)c2)c(OC)c1 [Example 788, 4-(5-chloro-6-(2,4-dichloro-6-methylphenoxy)-3-pyridinyl)-N-(ethylsulfonyl)-3-methoxybenzamide]	–	24.8 nM	–	1380 nM

The next lines start with results.

IC50 (human Nav1.7)	IC50 (human Nav1.7; in-vitro Nav 1.7 PX data)	Compound	IC50 (human Nav 1.5; read-out: NAV 1.5 IWQ IC50)	IC50 (human Nav 1.5; [1])
99.9 nM	–	Cc1cc(C(=O)NS(C)(=O)=O)c(F)cc1-c1cnc(N2CCC[C@H]2c2ccccc2)c(Cl)c1 [Example 646, 4-(5-chloro-6-((2S)-2-phenyl-1-pyrrolidinyl)-3-pyridinyl)-2-fluoro-5-methyl-N-(methylsulfonyl)benzamide]	> 3000 nM	–
97.3 nM	–	CCOc1ccc(Oc2ncc(-c3cc(F)c(C(=O)NS(C)(=O)=O)cc3C)cc2Cl)cc1F [Example 645, 4-(5-chloro-6-(4-ethoxy-3-fluorophenoxy)-3-pyridinyl)-2-fluoro-5-methyl-N-(methylsulfonyl)benzamide]	> 3000 nM	–
76.1 nM	–	Cc1cc(C(=O)NS(C)(=O)=O)c(F)cc1-c1cnc(Oc2ccc(C(C)(C)C)cc2Cl)c(Cl)c1 [Example 611, 4-(6-(4-tert-butyl-2-chlorophenoxy)-5-chloro-3-pyridinyl)-2-fluoro-5-methyl-N-(methylsulfonyl)benzamide]	> 3000 nM	–
–	34.9 nM	COc1cc(C(=O)NS(C)(=O)=O)c(F)cc1-c1cnc(OCc2nc3ccccc3s2)c(Cl)c1 [Example 709, 4-(6-(1,3-benzothiazol-2-ylmethoxy)-5-chloro-3-pyridinyl)-2-fluoro-5-methoxy-N-(methylsulfonyl)benzamide]	–	> 3000 nM
83.6 nM	–	Cc1cc(C(=O)NS(C)(=O)=O)c(F)cc1-c1cnc(Oc2c(Cl)ccc(C)c2F)c(Cl)c1 [Example 670, 4-(5-chloro-6-(6-chloro-2-fluoro-3-methylphenoxy)-3-pyridinyl)-2-fluoro-5-methyl-N-(methylsulfonyl)benzamide]	> 10000 nM	–
35.7 nM	–	Cc1cc(C(=O)NS(C)(=O)=O)c(F)cc1-c1cnc(Oc2ccc(Cl)cc2Cl)c(Cl)c1 [Example 665, 4-(5-chloro-6-(2,4-dichlorophenoxy)-3-pyridinyl)-2-fluoro-5-methyl-N-(methylsulfonyl)benzamide]	4680 nM	–
69.8 nM	–	CS(=O)(=O)NC(=O)c1cc(Cl)c(-c2cnc(Oc3cc(F)ccc3F)c(Cl)c2)cc1F [Example 597, 5-chloro-4-(5-chloro-6-(2,5-difluorophenoxy)-3-pyridinyl)-2-fluoro-N-(methylsulfonyl)benzamide]	5390 nM	–
